The subject of the assay is BDF1 mice, colon carcinoma 38 sc, T/C %. Nature of the assay: NCI In Vivo Anticancer Drug Screen. Data for tumor model Colon Carcinoma 38 (subcutaneous) in B6D2F1 (BDF1) mice. Here is the method: The antitumor activity of compounds was measured in mice bearing transplantable tumors. Survival or tumor size were measured and the results are expressed as the measurement made in the treated group (T) divided by the measurement made in the vehicle treated control group (C). The tumor model used in this assay is Colon Carcinoma 38 (subcutaneous) in B6D2F1 (BDF1) mice

[1] abbreviates: endpoint: median tumor weight (est.), dose: 25.0 mg/kg/injection, schedule: Q07DX002 (ip), vehicle: saline with Tween-80, higher = larger tumour.
[2] abbreviates: endpoint: median tumor weight (est.), dose: 50.0 mg/kg/injection, schedule: Q07DX002 (ip), vehicle: saline with Tween-80, higher = larger tumour.
Where [3] appears, read: endpoint: median tumor weight (est.), dose: 100.0 mg/kg/injection, schedule: Q07DX002 (ip), vehicle: saline with Tween-80, higher = larger tumour.
[4] abbreviates: endpoint: median tumor weight (est.), dose: 12.5 mg/kg/injection, schedule: Q07DX002 (ip), vehicle: water, higher = larger tumour.
The mark [5] stands for this setting: endpoint: median tumor weight (est.), dose: 12.5 mg/kg/injection, schedule: Q07DX002 (ip), vehicle: saline with Tween-80, higher = larger tumour.
The mark [6] stands for this setting: endpoint: median tumor weight (est.), dose: 6.25 mg/kg/injection, schedule: Q07DX002 (ip), vehicle: saline with Tween-80, higher = larger tumour.
Setting [7] is: endpoint: median tumor weight (est.), dose: 6.25 mg/kg/injection, schedule: Q07DX002 (ip), vehicle: Klucel (hydroxypropylcellulose) (HPC), higher = larger tumour.
The mark [8] stands for this setting: endpoint: median tumor weight (est.), dose: 100.0 mg/kg/injection, schedule: Q07DX002 (ip), vehicle: Klucel (hydroxypropylcellulose) (HPC), higher = larger tumour.

Several values for one entry are separate records, joined by “and”; a condition that tells them apart may be missing. Identical values can stand only once. Results filed as inconclusive are left out.

As for `CC(=O)Nc1ccc(Nc2ccc(C(=C3C=CC(=[N+](C)CCC#N)C=C3)c3ccc(N(C)CCC#N)cc3)cc2)cc1`, the T/C runs as follows: under setting [1], 77 % of control and 93 % of control; under setting [2], 91 % of control; under setting [3], 52 % of control.

Regarding `CC(=O)NC(C=O)OCC=O` (stereo not drawn), the T/C was 92 % of control under setting [4] and 152 % of control (endpoint: median tumor weight (est.), dose: 400.0 mg/kg/injection, schedule: Q07DX002 (ip), vehicle: water, higher = larger tumour).

Regarding `N=C(N)c1ccc(/C=C/c2ccc(C(=N)N)cc2O)cc1`, the T/C by setting is: (endpoint: median tumor weight (est.), dose: 6.25 mg/kg/injection, schedule: Q07DX002 (ip), vehicle: water, higher = larger tumour) 86 % of control; under setting [4], 95 % of control; (endpoint: median tumor weight (est.), dose: 25.0 mg/kg/injection, schedule: Q07DX002 (ip), vehicle: water, higher = larger tumour) 112 % of control; (endpoint: median tumor weight (est.), dose: 100.0 mg/kg/injection, schedule: Q07DX002 (ip), vehicle: water, higher = larger tumour) 108 % of control.

`CNC(=O)n1c(N)nc(-c2ccccc2)c1-c1ccccc1`: the T/C by setting is: under setting [5], 80 % of control; under setting [1], 99 % of control; under setting [2], 119 % of control; under setting [3], 98 % of control.

As for `O=C1c2c(O)ccc(O)c2C(=O)c2c(NCCNCCO)ccc(NCCNCCO)c21`, the T/C is 96 % of control (endpoint: median survival time, dose: 1.0 mg/kg/injection, schedule: Q04DX004 (ip), vehicle: acid diluted with saline, higher = longer survival); 153 % of control (endpoint: median survival time, dose: 2.3 mg/kg/injection, schedule: Q07DX004 (iv), vehicle: water, higher = longer survival); 176 % of control (endpoint: median survival time, dose: 3.7 mg/kg/injection, schedule: Q07DX004 (iv), vehicle: water, higher = longer survival); 117 % of control (endpoint: median survival time, dose: 4.0 mg/kg/injection, schedule: Q04DX004 (ip), vehicle: acid diluted with saline, higher = longer survival); 199 % of control (endpoint: median survival time, dose: 6.0 mg/kg/injection, schedule: Q07DX004 (iv), vehicle: water, higher = longer survival); 92 % of control and 100 % of control and 102 % of control (endpoint: median tumor weight (est.), dose: 0.5 mg/kg/injection, schedule: Q07DX002 (ip), vehicle: water, higher = larger tumour). Besides, the T/C by setting is: (endpoint: median tumor weight (est.), dose: 1.0 mg/kg/injection, schedule: Q07DX002 (ip), vehicle: acid diluted with saline, higher = larger tumour) 76 % of control; (endpoint: median tumor weight (est.), dose: 2.0 mg/kg/injection, schedule: Q07DX002 (ip), vehicle: acid diluted with saline, higher = larger tumour) 49 % of control; (endpoint: median tumor weight (est.), dose: 3.0 mg/kg/injection, schedule: Q07DX003 (ip), vehicle: saline with Tween-80, higher = larger tumour) 72 % of control; (endpoint: median tumor weight (est.), dose: 3.0 mg/kg/injection, schedule: Q07DX003 (iv), vehicle: acid diluted with saline, higher = larger tumour) 11 % of control; (endpoint: median tumor weight (est.), dose: 4.0 mg/kg/injection, schedule: Q07DX002 (ip), vehicle: acid diluted with saline, higher = larger tumour) 55 % of control.

With `CC1CC2OC2/C=C\C=C\C(=O)Cc2c(Cl)c(O)cc(O)c2C(=O)O1` (stereo not drawn), the T/C is, setting by setting: (endpoint: median tumor weight (est.), dose: 30.0 mg/kg/injection, schedule: Q07DX002 (ip), vehicle: Klucel (hydroxypropylcellulose) (HPC), higher = larger tumour) 72 % of control; (endpoint: median tumor weight (est.), dose: 60.0 mg/kg/injection, schedule: Q07DX002 (ip), vehicle: Klucel (hydroxypropylcellulose) (HPC), higher = larger tumour) 74 % of control; (endpoint: median tumor weight (est.), dose: 120.0 mg/kg/injection, schedule: Q07DX002 (ip), vehicle: Klucel (hydroxypropylcellulose) (HPC), higher = larger tumour) 105 % of control.

As to `NC(=S)Nc1cccc2ccccc12`, the T/C was 164 % of control under setting [6], 151 % of control under setting [5] and 162 % of control under setting [1].

Consider `CS(=O)(=O)OCCN(CCOS(C)(=O)=O)c1ccc(C=O)cc1`, for which the T/C was 113 % of control under setting [6], 29 % of control under setting [5], 57 % of control under setting [1] and 60 % of control under setting [2].

With `COC1=C(Br)[C@H](O)[C@](O)(CC#N)C=C1Br`, the T/C is 52 % of control (endpoint: median tumor weight (est.), dose: 8.75 mg/kg/injection, schedule: Q07DX002 (ip), vehicle: Klucel (hydroxypropylcellulose) (HPC), higher = larger tumour); 80 % of control (endpoint: median tumor weight (est.), dose: 17.5 mg/kg/injection, schedule: Q07DX002 (ip), vehicle: Klucel (hydroxypropylcellulose) (HPC), higher = larger tumour); 49 % of control (endpoint: median tumor weight (est.), dose: 35.0 mg/kg/injection, schedule: Q07DX002 (ip), vehicle: Klucel (hydroxypropylcellulose) (HPC), higher = larger tumour); 105 % of control (endpoint: median tumor weight (est.), dose: 70.0 mg/kg/injection, schedule: Q07DX002 (ip), vehicle: Klucel (hydroxypropylcellulose) (HPC), higher = larger tumour); 70 % of control (endpoint: median tumor weight (est.), dose: 140.0 mg/kg/injection, schedule: Q07DX002 (ip), vehicle: Klucel (hydroxypropylcellulose) (HPC), higher = larger tumour); 56 % of control (endpoint: median tumor weight (est.), dose: 280.0 mg/kg/injection, schedule: Q07DX002 (ip), vehicle: Klucel (hydroxypropylcellulose) (HPC), higher = larger tumour).

Regarding `CN1CCc2c(c3ccccc3c3ccccc23)C1`, the T/C was 111 % of control under setting [7]; 93 % of control (endpoint: median tumor weight (est.), dose: 12.5 mg/kg/injection, schedule: Q07DX002 (ip), vehicle: Klucel (hydroxypropylcellulose) (HPC), higher = larger tumour); 86 % of control (endpoint: median tumor weight (est.), dose: 50.0 mg/kg/injection, schedule: Q07DX002 (ip), vehicle: Klucel (hydroxypropylcellulose) (HPC), higher = larger tumour); 72 % of control under setting [8].

As to `NC1=NCN(C2OC(CO)C(O)C2O)C(=O)N1` (stereo not drawn), the T/C was 57 % of control and 71 % of control (endpoint: median tumor weight (est.), dose: 25.0 mg/kg/injection, schedule: Q07DX003 (ip), vehicle: saline, higher = larger tumour); 60 % of control and 79 % of control (endpoint: median tumor weight (est.), dose: 50.0 mg/kg/injection, schedule: Q07DX003 (ip), vehicle: saline, higher = larger tumour); 54 % of control and 75 % of control (endpoint: median tumor weight (est.), dose: 100.0 mg/kg/injection, schedule: Q07DX003 (ip), vehicle: saline, higher = larger tumour); 57 % of control and 58 % of control (endpoint: median tumor weight (est.), dose: 400.0 mg/kg/injection, schedule: Q07DX003 (ip), vehicle: saline, higher = larger tumour); 94 % of control (endpoint: median tumor weight (est.), dose: 600.0 mg/kg/injection, schedule: Q07DX003 (ip), vehicle: saline, higher = larger tumour); 79 % of control (endpoint: median tumor weight (est.), dose: 1000.0 mg/kg/injection, schedule: Q07DX003 (ip), vehicle: saline, higher = larger tumour). The T/C was 63 % of control (endpoint: median tumor weight (est.), dose: 1200.0 mg/kg/injection, schedule: Q07DX003 (ip), vehicle: saline, higher = larger tumour); 84 % of control (endpoint: median tumor weight (est.), dose: 1400.0 mg/kg/injection, schedule: Q07DX003 (ip), vehicle: saline, higher = larger tumour); 47 % of control (endpoint: median tumor weight (est.), dose: 1600.0 mg/kg/injection, schedule: Q07DX003 (ip), vehicle: saline, higher = larger tumour).

In the case of `C[C@H]1C[C@@H]2[C@H]([C@@H](O)C[C@@]3(C)[C@H]2CC[C@]3(O)C(=O)CO)[C@@]2(C)C=CC(=O)C=C12`, the T/C is, setting by setting: under setting [7], 82 % of control; (endpoint: median tumor weight (est.), dose: 25.0 mg/kg/injection, schedule: Q07DX002 (ip), vehicle: Klucel (hydroxypropylcellulose) (HPC), higher = larger tumour) 87 % of control and 88 % of control; under setting [8], 111 % of control and 86 % of control; (endpoint: median tumor weight (est.), dose: 200.0 mg/kg/injection, schedule: Q07DX002 (ip), vehicle: Klucel (hydroxypropylcellulose) (HPC), higher = larger tumour) 87 % of control and 88 % of control; (endpoint: median tumor weight (est.), dose: 400.0 mg/kg/injection, schedule: Q07DX002 (ip), vehicle: Klucel (hydroxypropylcellulose) (HPC), higher = larger tumour) 93 % of control.

For `C=C1C(=O)C23[C@H](O)C1CC[C@H]2[C@]12COC3(O)[C@@H](O)[C@@H]1C(C)(C)CC[C@@H]2O`, the T/C reads like this: (endpoint: median tumor weight (est.), dose: 1.56 mg/kg/injection, schedule: Q07DX002 (ip), vehicle: saline with Tween-80, higher = larger tumour) 104 % of control; (endpoint: median tumor weight (est.), dose: 3.12 mg/kg/injection, schedule: Q07DX002 (ip), vehicle: saline with Tween-80, higher = larger tumour) 112 % of control and 96 % of control; under setting [6], 100 % of control; under setting [5], 80 % of control.

As for `CC1=C(/C=C/C(C)=C/C=C/C(C)=C/C(=O)O)C(C)(C)CCC1`, the T/C is, setting by setting: (endpoint: median tumor weight (est.), dose: 3.12 mg/kg/injection, schedule: Q07DX003 (ip), vehicle: saline with Tween-80, higher = larger tumour) 87 % of control; (endpoint: median tumor weight (est.), dose: 6.25 mg/kg/injection, schedule: Q07DX003 (ip), vehicle: saline with Tween-80, higher = larger tumour) 96 % of control; (endpoint: median tumor weight (est.), dose: 8.0 mg/kg/injection, schedule: Q07DX003 (ip), vehicle: saline with Tween-80, higher = larger tumour) 103 % of control; (endpoint: median tumor weight (est.), dose: 12.5 mg/kg/injection, schedule: Q07DX003 (ip), vehicle: saline with Tween-80, higher = larger tumour) 99 % of control; (endpoint: median tumor weight (est.), dose: 25.0 mg/kg/injection, schedule: Q07DX003 (ip), vehicle: saline with Tween-80, higher = larger tumour) 100 % of control; (endpoint: median tumor weight (est.), dose: 32.0 mg/kg/injection, schedule: Q07DX003 (ip), vehicle: saline with Tween-80, higher = larger tumour) 98 % of control. In addition, the T/C (endpoint: median tumor weight (est.), dose: 64.0 mg/kg/injection, schedule: Q07DX003 (ip), vehicle: saline with Tween-80, higher = larger tumour) was 102 % of control.

For the compound `Cc1c2ccccc2cc2cccc[n+]12`, the T/C by setting is: (endpoint: median tumor weight (est.), dose: 10.0 mg/kg/injection, schedule: Q07DX002 (ip), vehicle: saline, higher = larger tumour) 87 % of control and 96 % of control; (endpoint: median tumor weight (est.), dose: 20.0 mg/kg/injection, schedule: Q07DX002 (ip), vehicle: saline, higher = larger tumour) 77 % of control; (endpoint: median tumor weight (est.), dose: 40.0 mg/kg/injection, schedule: Q07DX002 (ip), vehicle: saline, higher = larger tumour) 112 % of control and 94 % of control; (endpoint: median tumor weight (est.), dose: 80.0 mg/kg/injection, schedule: Q07DX002 (ip), vehicle: saline, higher = larger tumour) 109 % of control.
